Reference: patent US11655235B2, “Pyrrolidine and piperidine compounds” (YUHAN CORPORATION, priority 2019, dated 2023)

What was measured:
recombinant human DPP9 = biological target: T1, recombinant human DPP9 (Homo sapiens, UniProt Q86TI2); test: DPP9 inhibition, fluorogenic substrate H-Gly-Pro-AMC; format: biochemical; settings: recombinant human DPP9
T1 construct: purchased R&D Systems
How it was run: (§1)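 Enzyme per reaction: 50 ng DPP9, 20 ng DPP8, 10 ng each DPP7 and PREP. Compounds were serially diluted (8 points, up to 0.5% DMSO) and incubated at 25 °C.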

recombinant human PREP = biological target: T2, recombinant human PREP (Homo sapiens, UniProt P48147); test: PREP inhibition, fluorogenic substrate Z-Gly-Pro-AMC; format: biochemical; settings: Inhibitory Activity (IC50, nM) PREP, recombinant human PREP
T2 construct: purchased R&D System
T2 sequence (P48147 1-710): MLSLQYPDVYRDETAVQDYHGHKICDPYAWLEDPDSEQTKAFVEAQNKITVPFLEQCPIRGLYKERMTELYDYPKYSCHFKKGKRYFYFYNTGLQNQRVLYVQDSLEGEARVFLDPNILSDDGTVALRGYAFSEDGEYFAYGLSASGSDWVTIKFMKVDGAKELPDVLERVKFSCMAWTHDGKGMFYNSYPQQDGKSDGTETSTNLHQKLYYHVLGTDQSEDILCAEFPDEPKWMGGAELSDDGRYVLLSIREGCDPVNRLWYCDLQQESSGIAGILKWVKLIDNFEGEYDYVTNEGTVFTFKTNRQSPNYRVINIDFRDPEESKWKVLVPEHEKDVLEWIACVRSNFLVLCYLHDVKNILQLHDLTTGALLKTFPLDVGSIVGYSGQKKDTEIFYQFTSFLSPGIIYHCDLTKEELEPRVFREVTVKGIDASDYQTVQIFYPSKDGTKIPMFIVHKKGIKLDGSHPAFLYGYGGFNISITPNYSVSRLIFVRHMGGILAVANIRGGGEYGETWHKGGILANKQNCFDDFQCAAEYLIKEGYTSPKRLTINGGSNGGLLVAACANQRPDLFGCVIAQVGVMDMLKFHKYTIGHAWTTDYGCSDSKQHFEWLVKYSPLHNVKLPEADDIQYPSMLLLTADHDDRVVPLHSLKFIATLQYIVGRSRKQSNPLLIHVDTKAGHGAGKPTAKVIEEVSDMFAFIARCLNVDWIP
How it was run: as §1

recombinant human DPP8 = biological target: T3, recombinant human DPP8 (Homo sapiens, UniProt Q6V1X1); test: DPP8 inhibition, fluorogenic substrate Z-Ala-Pro-AMC; format: biochemical; settings: recombinant human DPP8
T3 construct: purchased PBS Bioscience
How it was run: as §1

Recombinant human FAP = biological target: T4, Recombinant human FAP (Homo sapiens, UniProt Q12884); test: FAP FRET assay, FGF21-sequence FRET peptide substrate; format: biochemical; settings: FRET peptide with human FGF21 sequence, 6 μM, 37° C.
T4 construct: purchased R&D systems
T4 sequence (Q12884 1-760): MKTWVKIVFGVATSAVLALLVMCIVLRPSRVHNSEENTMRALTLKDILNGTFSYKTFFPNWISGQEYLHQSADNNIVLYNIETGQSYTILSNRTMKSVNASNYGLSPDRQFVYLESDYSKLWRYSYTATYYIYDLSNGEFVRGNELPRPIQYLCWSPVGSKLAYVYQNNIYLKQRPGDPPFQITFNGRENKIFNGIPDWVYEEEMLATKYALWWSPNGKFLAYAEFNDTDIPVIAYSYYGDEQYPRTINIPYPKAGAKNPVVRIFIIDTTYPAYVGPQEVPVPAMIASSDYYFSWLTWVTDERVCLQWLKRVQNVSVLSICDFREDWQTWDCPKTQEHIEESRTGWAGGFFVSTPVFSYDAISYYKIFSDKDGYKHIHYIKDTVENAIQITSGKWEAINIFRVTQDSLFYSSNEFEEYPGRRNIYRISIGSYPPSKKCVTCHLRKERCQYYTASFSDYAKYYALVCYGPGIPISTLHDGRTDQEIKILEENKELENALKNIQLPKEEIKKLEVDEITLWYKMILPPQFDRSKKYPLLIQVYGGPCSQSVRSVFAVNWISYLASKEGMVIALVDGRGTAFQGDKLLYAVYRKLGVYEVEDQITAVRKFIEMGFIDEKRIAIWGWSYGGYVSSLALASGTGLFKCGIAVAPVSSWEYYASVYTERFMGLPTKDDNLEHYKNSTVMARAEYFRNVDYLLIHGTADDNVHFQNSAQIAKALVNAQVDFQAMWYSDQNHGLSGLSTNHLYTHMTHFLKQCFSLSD
How it was run: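 Recombinant human FAP, 10 ng per reaction, in 50 mM HEPES pH 7.2 with 150 mM NaCl, 0.1 mg/ml BSA, 1 mM EDTA; HyLite Fluor 488/QXL 520 FRET peptide of human FGF21 sequence at 6 μM final, ≤0.1% DMSO, 37° C. IC50 from 8-point curves by four-parameter logistic fit.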

DPP4 [1] = biological target: T5, DPP4 (Homo sapiens, UniProt P27487); test: DPP4 inhibition, fluorogenic substrate H-Gly-Pro-AMC; format: biochemical; parameters: purchased R&D Systems; settings: recombinant human DPP4
Target sequence in this assay (P27487 whole entry): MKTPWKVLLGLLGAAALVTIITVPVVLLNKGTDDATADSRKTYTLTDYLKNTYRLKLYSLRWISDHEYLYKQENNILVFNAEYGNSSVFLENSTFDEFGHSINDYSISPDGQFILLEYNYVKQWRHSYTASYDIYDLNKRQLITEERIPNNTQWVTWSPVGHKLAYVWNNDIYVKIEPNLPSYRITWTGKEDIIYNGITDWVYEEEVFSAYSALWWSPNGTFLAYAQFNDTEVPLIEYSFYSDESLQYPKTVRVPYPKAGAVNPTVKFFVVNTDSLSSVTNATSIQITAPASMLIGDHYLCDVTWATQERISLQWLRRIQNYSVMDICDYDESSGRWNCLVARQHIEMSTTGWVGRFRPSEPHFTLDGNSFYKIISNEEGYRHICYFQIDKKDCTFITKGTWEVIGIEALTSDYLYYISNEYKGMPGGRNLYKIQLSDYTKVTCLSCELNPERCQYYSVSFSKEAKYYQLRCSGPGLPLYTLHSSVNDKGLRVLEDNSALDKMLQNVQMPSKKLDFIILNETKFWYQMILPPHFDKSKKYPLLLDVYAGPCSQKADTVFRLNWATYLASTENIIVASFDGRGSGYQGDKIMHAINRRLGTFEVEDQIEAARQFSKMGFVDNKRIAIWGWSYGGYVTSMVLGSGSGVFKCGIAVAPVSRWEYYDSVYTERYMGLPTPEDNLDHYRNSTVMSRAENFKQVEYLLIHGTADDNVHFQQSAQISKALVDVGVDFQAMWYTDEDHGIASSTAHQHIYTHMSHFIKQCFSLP

recombinant human DPP7 = biological target: T6, recombinant human DPP7 (Homo sapiens, UniProt Q9UHL4); test: DPP7 inhibition, fluorogenic substrate Lys-Pro-AMC; format: biochemical; settings: recombinant human DPP7
T6 construct: purchased R&D Systems
How it was run: as §1

DPP4 [2] = biological target: T5, DPP4; settings: cited from earlier work
Target sequence in this assay (P27487 whole entry, species assumed): as the sequence (P27487 whole entry) above

tumors = settings: orally administered, mice; cited from earlier work

T3 sequence (Q6V1X1 whole entry): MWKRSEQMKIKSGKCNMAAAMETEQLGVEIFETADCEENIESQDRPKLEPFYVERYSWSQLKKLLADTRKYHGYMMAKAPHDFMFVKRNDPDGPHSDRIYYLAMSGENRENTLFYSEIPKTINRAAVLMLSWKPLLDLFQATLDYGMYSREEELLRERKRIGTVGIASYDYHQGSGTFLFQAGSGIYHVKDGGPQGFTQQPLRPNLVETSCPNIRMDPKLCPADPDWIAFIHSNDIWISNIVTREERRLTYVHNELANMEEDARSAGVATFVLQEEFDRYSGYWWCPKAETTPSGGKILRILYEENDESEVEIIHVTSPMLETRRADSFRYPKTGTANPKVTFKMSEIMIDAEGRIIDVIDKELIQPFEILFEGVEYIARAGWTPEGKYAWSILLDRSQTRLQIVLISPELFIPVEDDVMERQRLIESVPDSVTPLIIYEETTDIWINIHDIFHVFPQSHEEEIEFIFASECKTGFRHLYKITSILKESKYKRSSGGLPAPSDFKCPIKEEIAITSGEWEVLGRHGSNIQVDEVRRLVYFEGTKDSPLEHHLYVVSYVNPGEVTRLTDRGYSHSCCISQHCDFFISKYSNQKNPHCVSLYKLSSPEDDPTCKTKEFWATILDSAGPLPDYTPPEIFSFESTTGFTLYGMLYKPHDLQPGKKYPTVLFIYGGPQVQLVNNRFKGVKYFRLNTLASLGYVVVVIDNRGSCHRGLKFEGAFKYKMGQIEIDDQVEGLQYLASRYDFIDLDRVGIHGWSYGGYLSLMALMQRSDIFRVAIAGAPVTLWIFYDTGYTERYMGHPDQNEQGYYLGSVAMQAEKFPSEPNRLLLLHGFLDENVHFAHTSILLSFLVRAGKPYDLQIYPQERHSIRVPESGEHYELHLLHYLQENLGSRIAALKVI
T1 sequence (Q86TI2 whole entry): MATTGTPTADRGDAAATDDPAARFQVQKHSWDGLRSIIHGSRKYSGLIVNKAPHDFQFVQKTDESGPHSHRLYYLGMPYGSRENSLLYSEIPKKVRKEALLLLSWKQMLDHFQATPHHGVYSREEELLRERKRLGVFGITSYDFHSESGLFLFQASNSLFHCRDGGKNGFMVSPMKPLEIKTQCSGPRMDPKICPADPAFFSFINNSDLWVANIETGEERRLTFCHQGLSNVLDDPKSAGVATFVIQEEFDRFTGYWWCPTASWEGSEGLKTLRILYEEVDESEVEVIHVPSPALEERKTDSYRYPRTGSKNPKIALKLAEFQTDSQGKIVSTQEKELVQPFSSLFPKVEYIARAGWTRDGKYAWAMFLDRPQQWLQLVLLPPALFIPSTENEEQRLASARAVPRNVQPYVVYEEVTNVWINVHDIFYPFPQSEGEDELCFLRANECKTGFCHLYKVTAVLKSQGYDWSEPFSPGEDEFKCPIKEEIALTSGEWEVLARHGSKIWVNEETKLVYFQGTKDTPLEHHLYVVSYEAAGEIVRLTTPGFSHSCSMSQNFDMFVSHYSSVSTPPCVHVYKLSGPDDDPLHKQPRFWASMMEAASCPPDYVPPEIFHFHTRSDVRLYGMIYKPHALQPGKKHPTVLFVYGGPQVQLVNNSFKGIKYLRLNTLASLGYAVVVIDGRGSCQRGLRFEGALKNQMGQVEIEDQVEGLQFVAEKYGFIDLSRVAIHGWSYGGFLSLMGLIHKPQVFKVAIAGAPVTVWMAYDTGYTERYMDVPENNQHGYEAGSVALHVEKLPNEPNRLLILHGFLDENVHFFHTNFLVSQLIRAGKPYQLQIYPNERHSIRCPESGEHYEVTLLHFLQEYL

Compound	IC50 (recombinant human DPP9) [µM]	IC50 (recombinant human PREP) [nM]	IC50 (recombinant human DPP8) [µM]	IC50 (Recombinant human FAP) [µM]	IC50 (DPP4 [1]) [µM]	IC50 (recombinant human DPP7) [µM]	DPP4 inhibitory activity (DPP4 [2])	anticancer activities (tumors)
N#Cc1cccc2c(OC3CCN(CC(=O)N4C[C@@H](F)C[C@H]4C#N)CC3)ccnc12 [Example 434, 4-[[1-[2-oxo-2-[(2S,4S)-2-cyano-4-fluoro-pyrrolidin-1-yl]ethyl]-4-piperidyl]oxy]quinoline-8-carbonitrile]	4.51	395	2.74	0.0036	2.44	4.31		
Cc1cc(OC2CCN(CC(=O)N3C[C@@H](F)C[C@H]3C#N)CC2)c2ccccc2n1 [Example 436, (2S,4S)-4-fluoro-1-[2-[4-[(2-methyl-4-quinolyl)oxy]-1-piperidyl]acetyl]pyrrolidine-2-carbonitrile]	18.2	555	11.7	0.0111	9.04	8.51		
CC(C)[C@H](N)C(=O)N1CCC[C@H]1B(O)O [Val-boroPro, Talabostat]							inhibitory activity	
CC(C)[C@H](N)C(=O)N1CCC[C@H]1B(O)O [ValboroPro, Val-boroPro]								exhibits anticancer activities in mice by delaying the proliferation of tumors and inducing the degeneration of tumors

Further lines, with some results ahead:

IC50 (recombinant human DPP9) [µM]	IC50 (recombinant human PREP) [nM]	IC50 (recombinant human DPP8) [µM]	IC50 (Recombinant human FAP) [µM]	IC50 (DPP4 [1]) [µM]	IC50 (recombinant human DPP7) [µM]	Compound	DPP4 inhibitory activity (DPP4 [2])	anticancer activities (tumors)
17.4	454	4.15	0.0018	4.49	6.26	Cc1cc(OC2CCN(CC(=O)N3C[C@@H](F)C[C@H]3C#N)CC2)c2cc(F)ccc2n1 [Example 437, (2S,4S)-4-fluoro-1-[2-[4-[(6-fluoro-2-methyl-4-quinolyl)oxy]-1-piperidyl]acetyl]pyrrolidine-2-carbonitrile]		
5.97	156	3.38	0.0077	5.67	3.58	COc1cccc2c(OC3CCN(CC(=O)N4C[C@@H](F)C[C@H]4C#N)CC3)ccnc12 [Example 438, (2S,4S)-4-fluoro-1-[2-[4-[(8-methoxy-4-quinolyl)oxy]-1-piperidyl]acetyl]pyrrolidine-2-carbonitrile]		
5.46	75	2.7	0.0037	6.31	3.11	Cc1cccc2c(OC3CCN(CC(=O)N4C[C@@H](F)C[C@H]4C#N)CC3)ccnc12 [Example 439, (2S,4S)-4-fluoro-1-[2-[4-[(8-methyl-4-quinolyl)oxy]-1-piperidyl]acetyl]pyrrolidine-2-carbonitrile]		
